Results taken from US20020164637A1, “SCREEN FOR ECDYSONE RECEPTOR LIGANDS” (priority 1996, published 2002).

Key:
[1] = biological target: T1, EcR-Usp complexes (Drosophila melanogaster, UniProt P34021); assay: Saturation and Scatchard analysis of 3H-Ponasterone A binding to extract of yeast co-expressing EcR and Usp; conditions: extract from yeast strain co-expressing EcR and Usp
T1 construct: An immunoreactive polypeptide corresponding to the full EcR (100 kDa) was detected; ubiquitin (N, cleaved yes); made in house; host or cells: Saccharomyces cerevisiae strain BJ2168 (plasmids YEpEcR and YEpcUSP); unpurified cytosolic extract
T1 sequence (P34021 1-878): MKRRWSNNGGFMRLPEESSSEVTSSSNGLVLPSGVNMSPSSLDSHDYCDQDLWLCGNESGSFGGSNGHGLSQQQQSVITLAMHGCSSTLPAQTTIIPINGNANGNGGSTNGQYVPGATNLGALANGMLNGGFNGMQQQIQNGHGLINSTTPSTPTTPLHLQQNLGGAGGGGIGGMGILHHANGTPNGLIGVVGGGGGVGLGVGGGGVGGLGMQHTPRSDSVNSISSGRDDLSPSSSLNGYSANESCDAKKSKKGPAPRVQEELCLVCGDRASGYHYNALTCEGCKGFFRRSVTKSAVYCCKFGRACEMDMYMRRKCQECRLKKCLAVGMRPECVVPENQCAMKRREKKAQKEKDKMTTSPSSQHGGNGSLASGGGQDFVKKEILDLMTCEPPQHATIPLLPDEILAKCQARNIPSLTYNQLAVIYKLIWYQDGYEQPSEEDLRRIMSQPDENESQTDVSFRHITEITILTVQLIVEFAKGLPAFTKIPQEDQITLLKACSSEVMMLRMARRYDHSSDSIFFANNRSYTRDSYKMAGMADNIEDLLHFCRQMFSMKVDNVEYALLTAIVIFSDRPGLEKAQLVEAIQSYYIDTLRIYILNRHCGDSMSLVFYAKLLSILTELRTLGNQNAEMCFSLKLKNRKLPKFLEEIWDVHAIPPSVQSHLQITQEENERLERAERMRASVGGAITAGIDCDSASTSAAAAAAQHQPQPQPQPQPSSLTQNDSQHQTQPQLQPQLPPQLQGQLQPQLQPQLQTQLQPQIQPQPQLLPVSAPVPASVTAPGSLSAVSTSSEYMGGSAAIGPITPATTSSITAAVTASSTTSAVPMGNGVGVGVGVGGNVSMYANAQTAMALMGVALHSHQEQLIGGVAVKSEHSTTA
T1 sequence (P20153 1-508 partner): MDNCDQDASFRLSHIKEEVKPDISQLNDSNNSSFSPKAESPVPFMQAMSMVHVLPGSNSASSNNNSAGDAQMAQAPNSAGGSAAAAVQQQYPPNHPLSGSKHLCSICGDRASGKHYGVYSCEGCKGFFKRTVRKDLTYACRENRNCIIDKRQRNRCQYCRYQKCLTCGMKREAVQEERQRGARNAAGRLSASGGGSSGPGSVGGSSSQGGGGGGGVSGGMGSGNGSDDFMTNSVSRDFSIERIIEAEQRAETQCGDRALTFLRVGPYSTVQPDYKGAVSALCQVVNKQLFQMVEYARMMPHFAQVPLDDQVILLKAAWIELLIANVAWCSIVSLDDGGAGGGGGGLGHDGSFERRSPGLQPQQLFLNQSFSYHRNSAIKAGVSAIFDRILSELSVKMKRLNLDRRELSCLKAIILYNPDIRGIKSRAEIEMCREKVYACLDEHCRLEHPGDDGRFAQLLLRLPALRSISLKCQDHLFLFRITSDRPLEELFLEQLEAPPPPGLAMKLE
Procedure: (§1) Overnight cultures of yeast strains expressing EcR, Usp, EcR+Usp, and EcR+RxR were inoculated into 1 liter of selective medium and incubated for 16 h at 30° C. In strains expressing Usp, cupric sulfate was added to a final concentration of 100 μM and the culture incubated an additional 4 h at 30° C. The cells were harvested by centrifugation and washed twice in cold TEDG buffer (10 mM Tris-HCl, pH 8.0, 0.1 mM EDTA, 2 mM dithiothreitol, 10% glycerol). The cell pellet was then resuspended in TEDG buffer containing 0.4M NaCl, and vortexed with glass beads in ten 30-second bursts. The resulting homogenate is centrifuged at 1000×g for 10 min, after which the supernatant is centrifuged at 100,000×g for 30 min. The final supernatant is collected, diluted to 12.5 mg/ml protein with TEDG buffer, and stored in aliquots at −80° C.
(§2) The following components were added to each reaction mixture:
(§3) (i) 40 μl yeast extract (12.5 mg/ml protein);
(ii) 20 μl ^3H-Ponasterone A (New England Nuclear, 195 Ci/mmol; 20 μl contains 100,000 cpm and a final concentration of 2.5 nM in the reaction mixture); […]
The reactions were incubated for 1 h at room temperature or at least 12 h at 4° C. Protein-bound and -free radioactivity were separated by hydroxylapatite chromatography or by filtration, the individual samples suspended in scintillation fluid and the radioactivity determined by scintillation counting. […]

[2] = biological target: T1, EcR-Usp complexes; assay: Competitive displacement of 3H-Ponasterone A binding to extract of yeast co-expressing EcR and Usp; conditions: unlabelled ligand, FIG. 4, read-out: IC50 for displacing 3H-Ponasterone binding
Procedure: as §1, §2, §3
(ii) 20 μl ^3H-Ponasterone A (New England Nuclear, 195 Ci/mmol; 20 μl contains 100,000 cpm and a final concentration of 2.5 nM in the reaction mixture);
(iii) 120 μl TEDG buffer containing the following protease inhibitors: PMSF (Sigma Chemical Co.), 0.15 mg/ml; leupeptin (Bachem), 0.04 mg/ml; chymostatin (Bachem), 0.03 mg/ml; and pepstatin (Sigma), 0.01 mg/ml; and
(iv) 20 μl test sample, 25 μM Muristerone A, or control diluent.
The reactions were incubated for 1 h at room temperature or at least 12 h at 4° C. Protein-bound and -free radioactivity were separated by hydroxylapatite chromatography or by filtration, the individual samples suspended in scintillation fluid and the radioactivity determined by scintillation counting.
Specificity of hormone binding to the yeast extract was measured by testing the ability of four known (unlabelled) EcR ligands to displace 3H-Ponasterone binding.
The methods described in Example 2 above were used to test a collection of natural products for EcR binding activity (FIG. 7). The products were tested at 1 and 10 μg/ml. Of 92 compounds tested, one (present in well H8) displaced 62% of ^3H-Ponasterone A binding activity at 10 μg/ml.
A chemical library containing 6592 samples was also screened using the methods described above. Each sample was present at 10 μg/ml. Compounds that displaced at least 75% of the radiolabel were scored as positives. These compounds were then used to generate competitive binding curves as described above.

[3] = cited from earlier work
[4] = cited from earlier work; remark: listed apart in the source

Row | Compound | Kd [1] [µM] | IC50 [2] [µM] | fold less active in bioassays compared with 20-hydroxyecdysone [3] | fold less active in binding assays compared with 20-hydroxyecdysone [4]
1 | ^3H-Ponasterone A | 0.0018 | – | – | –
2 | CC(C)CC[C@@H](O)[C@](C)(O)[C@H]1CC[C@@]2(O)C3=CC(=O)[C@]4(O)C[C@@H](O)[C@@H](O)C[C@]4(C)[C@H]3[C@H](O)C[C@]12C [muristerone A] | – | 0.015 | – | –
3 | 20-hydroxyecdysone | – | 0.5 | – | –
4 | CC(C)CC[C@@H](O)[C@](C)(O)[C@H]1CC[C@@]2(O)C3=CC(=O)[C@@H]4C[C@@H](O)[C@@H](O)C[C@]4(C)[C@H]3CC[C@]12C [ponasterone A] | – | 0.002 | – | –
5 | CC(C)(C)N(NC(=O)c1ccccc1)C(=O)c1ccccc1 [RH5849] | – | 12 | at least 100 fold | at least 30 fold
